Entries after “also recorded” stand apart in the source; their conditions may differ.
What was measured:
[1] = molecular target: T1, GRP78 on endothelial cells (Homo sapiens, UniProt P11021); assay: FACS competition of peptides with GRP78 polyclonal antibody on endothelial cells under hypoxia; format: binding; settings: hypoxic conditions; for inhibition of anti GRP78 binding to endothelial cells: ten micrograms of peptide
T1 construct: endogenous in cells; host or cells: HUVEC / endothelial cells from umbilical cords, under normoxia or hypoxia
Experimental: Endothelial cells were cultured for 24 hours under hypoxic conditions in endothelial cell growth medium. Cells were removed by trypsin and incubated for 1 hour on ice with increasing concentrations of AdoPep1, Motif A and Motif C peptides. GRP78 polyclonal antibody (2 μg/100,000) was added to the cells for 2 hours on ice. Anti-goat FITC (Jackson ImmunoResearch) was added for 30 minutes on ice. IgG1-FITC was used as the isotype control. The samples were analyzed with a FACScan (Beckton Dickinson). […] FIG. 28d depicts the average percent binding of GRP78 to endothelial cells as a function of peptide amount as determined by 2 independent experiments.

ERK½ = ERK½ phosphorylation in endothelial cells under hypoxia (Western blot, densitometry); format: cell-based, human; settings: for percent adjusted volume of pERK band: FIG. 31, cord 1, 10 ng/ml; for ERK½ phosphorylation (in words): endothelial cells under hypoxia; for ERK½ phosphorylation (in words) / incubation time of maximal ERK phosphorylation (densitometry, data not shown): 10 ng/ml; for incubation time of maximal ERK phosphorylation (densitometry, data not shown): hypoxia
Experimental: FIGS. 30a-b are Western blot analyses depicting induction of phosphorylation of ERK by ADoPep1 and Motif A. Endothelial cells under starvation conditions and 5 hours hypoxia were incubated for 5 (lanes 2 and 6), 20 (lanes 3 and 7), 30 (lanes 4 and 8) and 60 (lanes 5 and 9) minutes with 10 ng/ml ADoPep1 (Lanes 2-5) or Motif A (lanes 6-9) peptides or remained under hypoxia without a further incubation with a peptide (lane 1). After incubation, lysates were prepared, subject to SDS-PAGE and blotting on a nitrocellulose membrane. Western Blot analysis was performed using anti-Phospho ERK½ antibody. […] FIG. 30a—Experiment 1; FIG. 30b—Experiment 2. The percent adjusted volume as determined by a densitometric analysis software to compare net band densities was as follows: FIG. 30a, lane 1-4.5, lane 2-9.3, lane 3-13.7, lane 4-13.3, lane 5-11.2, lane 6-10.7, lane 7-12.4, lane 8-12.3 and lane 9-12.4; FIG. 30b, lane 1-4.21, lane 2-12.4, lane 3-12.5, lane 4-14.8, lane 5-10.9, lane 6-14.9, lane 7-9.8, lane 8-12.7 and lane 9-7.8.
FIG. 31 is a Western blot analysis depicting the level of phosphorylated ERK (pERK) in endothelial cells activated for 20 minutes with ADOPep1 and motif A and inhibited by pERK-inhibitor peptide. Endothelial cells (from cord 1) under starvation conditions and 5 hours hypoxia were incubated with 10 ng/ml ADOPep1 (lanes 3 and 4) or motif A (lanes 1 and 2) peptides in the presence (lanes 2 and 4) or absence (lanes 1 and 3) of p-ERK-inhibitor peptide (Santa Cruz). For control, the endothelial cells under starvation conditions and 5 hours hypoxia (lane 5) were also incubated with the p-ERK-inhibitor peptide (lane 6). […] The percent adjusted volume as determined by a densitometric analysis software to compare net band densities was as follows: lane 1-19, lane 2-14, lane 3-14, lane 4-8.8, lane 5-11, lane 6-2.1.
FIGS. 32a-b are Western blot analyses depicting the effect of ADOPeps on the level of phosphorylated ERK. Endothelial cells (EC) from cord 1 (FIG. 32a) or cord 2 (FIG. 32b) under hypoxia (5 hours) were incubated for 20 or 30 minutes with 10 ng/ml of AdoPep1, AdoPep2 and AdoPep3 or remained untreated (i.e., under hypoxia without any peptide). Western Blot analyses of samples cell lysates were performed with anti Phospho ERK antibody on nitrocellulose membranes. […] The percent adjusted volume as determined by a densitometric analysis software to compare net band densities was as follows: FIG. 32a, lane 1-11, lane 2-13, lane 3-11, lane 4-5, lane 5-11, lane 6-13, lane 7-17, lane 8-16.7; FIG. 32b, lane 1-17, lane 2-22, lane 3-19, lane 4-7, lane 5-8, lane 6-13, lane 7-14, lane 8-1.

[2] = FIG. 30a experiment 1, 10 ng/ml, 5 minutes, hypoxia alone 4.5
[3] = FIG. 30a experiment 1, 10 ng/ml, 20 minutes, hypoxia alone 4.5
[4] = FIG. 30a experiment 1, 10 ng/ml, 30 minutes, hypoxia alone 4.5
[5] = FIG. 30a experiment 1, 10 ng/ml, 60 minutes, hypoxia alone 4.5
[6] = FIG. 30b experiment 2, 10 ng/ml, 5 minutes, hypoxia alone 4.21
[7] = FIG. 30b experiment 2, 10 ng/ml, 20 minutes, hypoxia alone 4.21
[8] = FIG. 30b experiment 2, 10 ng/ml, 30 minutes, hypoxia alone 4.21
[9] = FIG. 30b experiment 2, 10 ng/ml, 60 minutes, hypoxia alone 4.21
[10] = 20 minutes, absence of p-ERK-inhibitor peptide, hypoxia alone 11
[11] = 20 minutes, presence of p-ERK-inhibitor peptide

T1 sequence (P11021 19-654): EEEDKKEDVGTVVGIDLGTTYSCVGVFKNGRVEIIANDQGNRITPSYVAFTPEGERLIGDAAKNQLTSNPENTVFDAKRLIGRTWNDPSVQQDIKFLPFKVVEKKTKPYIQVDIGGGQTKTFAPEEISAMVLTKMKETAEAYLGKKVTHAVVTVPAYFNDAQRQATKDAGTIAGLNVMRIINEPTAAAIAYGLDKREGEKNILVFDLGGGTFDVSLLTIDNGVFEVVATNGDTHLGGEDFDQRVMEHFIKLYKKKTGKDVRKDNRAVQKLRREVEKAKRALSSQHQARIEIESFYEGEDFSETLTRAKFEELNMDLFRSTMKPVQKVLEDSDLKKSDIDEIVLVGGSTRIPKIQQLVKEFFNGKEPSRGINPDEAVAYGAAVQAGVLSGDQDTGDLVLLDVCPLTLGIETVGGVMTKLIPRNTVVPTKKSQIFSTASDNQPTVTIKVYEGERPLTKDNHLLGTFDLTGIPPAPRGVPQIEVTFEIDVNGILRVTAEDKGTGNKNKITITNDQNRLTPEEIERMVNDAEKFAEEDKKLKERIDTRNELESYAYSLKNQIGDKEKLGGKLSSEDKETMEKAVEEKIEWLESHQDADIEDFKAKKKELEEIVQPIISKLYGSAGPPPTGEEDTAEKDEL

Substance	inhibition of anti GRP78 binding to endothelial cells (in words) [1]	inhibition of anti GRP78 binding to endothelial cells [1]	percent adjusted volume of phospho ERK½ band (ERK½; [2]) [%]	percent adjusted volume of phospho ERK½ band (ERK½; [3]) [%]	percent adjusted volume of phospho ERK½ band (ERK½; [4]) [%]	percent adjusted volume of phospho ERK½ band (ERK½; [5]) [%]	percent adjusted volume of phospho ERK½ band (ERK½; [6]) [%]	percent adjusted volume of phospho ERK½ band (ERK½; [7]) [%]	percent adjusted volume of phospho ERK½ band (ERK½; [8]) [%]	percent adjusted volume of phospho ERK½ band (ERK½; [9]) [%]	percent adjusted volume of pERK band (ERK½; [10]) [%]	percent adjusted volume of pERK band (ERK½; [11]) [%]	percent adjusted volume of phospho ERK band (ERK½; FIG. 32a cord 1, 10 ng/ml, 20 minutes, untreated 11, 13) [%]	percent adjusted volume of phospho ERK band (ERK½; FIG. 32a cord 1, 10 ng/ml, 30 minutes, untreated 11, 13) [%]	percent adjusted volume of phospho ERK band (ERK½; FIG. 32b cord 2, 10 ng/ml, 20 minutes, untreated 17) [%]	percent adjusted volume of phospho ERK band (ERK½; FIG. 32b cord 2, 10 ng/ml, 30 minutes, untreated 8) [%]	ERK½ phosphorylation (in words) (ERK½)	ERK½ phosphorylation (in words) (ERK½; listed as ADoPep1)	incubation time of maximal ERK phosphorylation (densitometry, data not shown) (ERK½) [min]
HWRRAHLLPRLP [ADOPep1, ADAM15 derived peptide, amino acids 286-297 of the metalloprotease domain]	inhibit the binding of GRP78 to endothelial cells	approximately 80%	9.3	13.7	13.3	11.2	12.4	12.5	14.8	10.9	14	8.8	17	16.7	22	13	significant increase in ERK½ phosphorylation; also recorded: induced ERK½ phosphorylation	induction of ERK½ phosphorylation	20
HWRRP [Motif A, 5 amino acid motif peptide]	inhibit the binding of GRP78 to endothelial cells	~60%	10.7	12.4	12.3	12.4	14.9	9.8	12.7	7.8	19	14					significant increase in ERK½ phosphorylation; also recorded: induction of ERK½ phosphorylation		20 to 60

Reference: US8741843B2, “Compositions and methods for inducing angiogenesis” (priority 2006, dated 2014)
